Experiment [1] concerns MMTV-neu tumours. It is filed as in vivo, mice. The method, then:
Following pregnancy, which induces activation of the promoter, MMTV-neu mice spontaneously develop multiple tumours within each mammary gland. […] Control animals were dosed with vehicle (1% polysorbate 80). Due to variability in the growth of spontaneous tumours, dosing commenced at different times relative to the assessment of tumour volume, which was determined twice weekly on all animals using calipers. To simplify the analysis, data within each group were collated in 3 day intervals (e.g. tumour volumes from mice receiving either 2, 3 or 4 doses of compound were pooled and the mean volume plotted against “day 3”). Data is plotted for measurements grouped over 3 day periods ie 2-4, 5-7, 8-10 etc. Statistical analysis was performed on measurements between 20 and 22 days of dosing.

Experiment [2] has as its system A431 vulval carcinoma xenografts. Put plainly: Human A431 vulval carcinoma tumour xenografts in nude mice. To be noted: p.o. daily, AZD2171 3 mg/kg/day, ZD1839 50 mg/kg/day or both; for Number of tumours regressing after 24 days of treatment (treatment from day 28 to day 52): regressing/total. (A xenograft is tissue or cells of one species grown in another, often human tumour cells in immunodeficient mice.)
Procedure: 5×10^6 A431 tumour cells in 0.1 ml of serum free Dulbecco's Modified Eagle's Medium (DMEM) were injected subcutaneously (s.c.) into the flank of each athymic (nu/nu genotype) mouse. Eleven days after inoculation tumours were excised and dissected to generate cubic tumour fragments of 0.5-1 mm^3, which were implanted into further nude mice for a therapy experiment. Tumour volumes were assessed by bilateral Vernier caliper measurement and, taking length to be the longest diameter across the tumour and width the corresponding perpendicular, calculated using the formula (length×width)×the square root of (length×width)×(π/6). […] Inhibition of tumour growth from the start of treatment was assessed on day 45 (the point at which control animals were removed from the experiment because of tumour burden) by comparison of the differences in tumor volume between control and treated groups. In addition, the number of tumour regressions following 24 days of treatment was ascertained (tumour regression being evident if the tumour volume at day 52 was smaller than the pre-treatment value on day 28).

Here are results for two molecules from patent publication US20100179142A1 (priority 2003, published 2010).

Turning to `COc1cc2c(Oc3ccc4[nH]c(C)cc4c3F)ncnc2cc1OCCCN1CCCC1` [AZD2171, 4-(4-fluoro-2-methylindol-5-yloxy)-6-methoxy-7-(3-(pyrrolidin-1-yl)propoxy)quinazoline], the “inhibition of growth of established MMTV-neu tumours” value in experiment [1] (AZD2171 alone 1 or 3 mg/kg/day, orally once-daily, 20-22 days of dosing, P<0.05) was “inhibited the growth of established (≧0.4 cm^3) MMTV-neu tumours significantly”. Also, the “Number of tumours regressing after 24 days of treatment (treatment from day 28 to day 52)” value in experiment [2] is reported as 2/10. In addition, in experiment [2] (versus control at day 45), the “Mean % Inhibition of tumour growth following 17 days of treatment (treatment from day 28 to day 45)” value is reported as 95% (P < 0.001).
Regarding `COc1cc2ncnc(Nc3ccc(F)c(Cl)c3)c2cc1OCCCN1CCOCC1` [ZD1839, N-(3-chloro-4-fluorophenyl)-7-methoxy-6-(3-morpholinopropoxy)quinazolin-4-amine, reference compound], the “anti-tumour effect in MMTV-neu mice” value in experiment [1] (mouse, in vivo) is on record as “significant anti-tumour effect”. For the same molecule, the “Number of tumours regressing after 24 days of treatment (treatment from day 28 to day 52)” value in experiment [2] is given as 2/10.
